Data taken from article PMC6175828, “C16-ceramide is a natural regulatory ligand of p53 in cellular stress response” (Nature Communications, 2018).
pKd: −log10 of the molar value. Blank lines part the entries; values can stand above or below the compound they belong to.

Experiments:
[1] = molecular target: T1, p53 (Homo sapiens, UniProt P04637); assay: UV photo-crosslinking, MALDI-TOF MS and LC-MS/MS site mapping; thermal shift (Tm […] to […] °C); format: binding; parameters: gene TP53; DBD, residues 100–300
[2] = molecular target: T2, p53 (Homo sapiens, UniProt P04637, S240E); assay: binding test of p53 mutant (Supplementary Figure […]), qualitative
T2 construct: gene TP53; full-length

[3] = molecular target: T3, p53 (Homo sapiens, UniProt P04637, R175H); assay: binding test of p53 mutant (Supplementary Figure 4a), qualitative
T3 construct: gene TP53

[4] = molecular target: T4, p53 (Homo sapiens, UniProt P04637, S241A); assay: binding test of p53 mutant (Supplementary Figure […]), qualitative
T4 construct: gene TP53; full-length

[5] = molecular target: T1, p53; assay: intrinsic tyrosine fluorescence quenching titration of purified p53 DBD; PVDF membrane-binding assay; parameters: gene TP53
[6] = molecular target: T1, p53; assay: PVDF membrane-binding assay with purified p53; p53 immunoprecipitation with LC-MS/MS of bound ceramide; parameters: gene TP53; purified recombinant p53; endogenous p53 pulled down from A549 cells

Structure (SMILES): C#CCCCC1(CCCCCCCCC(=O)N[C@@H](CO)[C@H](O)/C=C/CCCCCCCCCCCCC)N=N1 [PAC, N-(9-(3-pent-4-ynyl-3-H-diazirin-3-yl)-nonanoyl)-D-erythro-sphingosine]
UV photo-crosslinking, MALDI-TOF MS and LC-MS/MS site mapping; thermal shift (Tm) [1]: LC-MS/MS data revealed two ceramide-modified residues, Ser240 and Ser241 (Fig. 3b), in the PAC-modified sample only

pKd [5]: ~7.22
Structure (SMILES): CCCCCCCCCCCCC/C=C/[C@@H](O)[C@H](CO)NC(=O)CCCCCCCCCCCCCCC[n+]1ccccc1 [PC16, D-erythro-2-N-[16′-(1′′-pyridinium)-hexadecanoyl]-sphingosine bromide]
binding test of p53 mutant (Supplementary Figure 4), qualitative [2]: substitutions with aa having shorter side chains (S241A or S240E) did not affect the binding
binding test of p53 mutant (Supplementary Figure 4a), qualitative [3]: R175H, did not affect the binding of PC16 to p53 (Supplementary Figure 4a)
binding test of p53 mutant (Supplementary Figure 4), qualitative [4]: substitutions with aa having shorter side chains (S241A or S240E) did not affect the binding

Structure (SMILES): CCCCCCCCCCCCC/C=C/[C@@H](O)[C@H](CO)NC(=O)CCCCCCCCCCCCCCC [C16-ceramide, N-(hexadecanoyl)-sphing-4-enine]
PVDF membrane-binding assay with purified p53; p53 immunoprecipitation with LC-M [6]: these experiments demonstrated the strong preference of p53 for C16-ceramide
